From PubChem BioAssay AID179 (DTP/NCI, 2004)
Values joined by “and” are separate entries in the source; they are usually repeats but may differ in a detail not shown here. Equal values may be shown once. Active and inactive are the calls of the source.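 Rule for the calls: active = compounds giving half or more protection of infected cells from virus-caused growth loss, again on retest; inactive = the rest.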 Where a SMILES comes first, the peptide text is derived from it. The star is where a group is joined. OSu = O=C1CCC(=O)N1O*

Test system: CEM cells HIV-1 protection, formazan growth assay
Experiment: NCI AIDS Antiviral Assay
Settings: for IC50: measured here: growth of uninfected CEM cells
Method in brief: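 CEM (human) cells, HIV-1 infected vs uninfected, 5-point dosing, formazan growth read-out. Retest threshold 50% protection.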

Row | Structure (SMILES) | outcome | EC50 [µM] | IC50
1 | CC(C)C1NC(=O)C(Cc2ccccc2)NC(=O)C2NC(=O)C(Cc3ccccc3)NC(=O)C3CCCN3C(=O)CNC(=O)C(Cc3ccccc3)NC(=O)C3CNCCCCC(C(=O)O)NC(=O)C4NC(=O)C(CC(N)=O)NC(=O)CNC(=O)C(C(O)C(=O)O)NC(=O)C(CSCC(NC(=O)C(CCC(N)=O)NC(=O)C(CCCNC(=N)N)NC(=O)C(N)CSC4C)C(=O)NC(CSC2C)C(=O)N3)NC1=O (stereo not given) | active |  | 
2 | O=C1NC(=O)C(SSC2C(=O)NC(=O)NC2=O)C(=O)N1 |  | > 200 | > 200 µM
3 | Cc1cccc(C)c1N/C(=N\Nc1c([N+](=O)[O-])cccc1[N+](=O)[O-])NC(=O)c1ccccc1C(=O)N/C(=N/Nc1c([N+](=O)[O-])cccc1[N+](=O)[O-])Nc1c(C)cccc1C |  | > 200 | 69.2 µM
4 | C1CSCCSS[C@@H]2CCCCC2SC1 (stereo not given in full) |  | > 33.9 | > 33.9 µM
5 | COc1cc2c(cc1O)C1(Cc3ccc4c(c3[C@@H]1O)OCO4)N(C)CC2 (stereo not given in full) |  | > 141 | > 141 µM
6 | CCCC(=O)NC(Nc1ccc(F)cc1)(C(F)(F)F)C(F)(F)F | inactive |  | 
7 | O=C(CNc1cccc([N+](=O)[O-])c1)Nn1c(-c2ccccc2)nc2ccccc2c1=O |  | > 20 | 1.05 µM
8 | O=[N+]([O-])/N=c1/nc2scc(-c3ccc([N+](=O)[O-])cc3)n2s1 |  | > 200 | 29.5 µM
9 | O=C1N(CO)C2C(N1CO)N(CO)C(=O)N2CO (stereo not given) |  | > 200 | 33.1 µM and 102 µM
10 | O=C1OCSc2ccccc21 |  | > 1070 | 178 µM
11 | O=C(/C(=C/c1ccc(O)cc1)c1ccccc1)c1ccccc1 |  | > 120 | 36.3 µM
12 | CC(C)(CO)N=Cc1ccccc1[O-].CC(C)(CO)N=Cc1ccccc1[O-].[Co+2] |  | > 151 | > 151 µM
13 | O=C1CCCN(c2ccccc2)N1 |  | > 1410 | > 1410 µM
14 | NC(=O)c1ncn(CC2(CO)CCC2)n1 |  | > 200 | > 200 µM
15 | Cc1ccc(S(=O)(=O)Oc2nc3nc4ccccc4nc3nc2OS(=O)(=O)c2ccc(C)cc2)cc1 |  | > 200 | 102 µM
16 | CN1CCN(c2cc3c(cc2F)c(=O)c(C(=O)O)cn3C2CC2)CC1CC#N (stereo not given) |  | > 200 | 148 µM
17 | COC(=O)c1cccc(COC(=O)c2cc(C(=CCC[C@H]3CC[C@@]4(C)[C@@H](CC[C@@H]5[C@@H]4CC[C@]4(C)[C@@H]([C@H](C)CCCC(C)C)CC[C@@H]54)C3)c3cc(Cl)c(OCc4cccc(C(=O)OC)c4)c(C(=O)OCc4cccc(C(=O)OC)c4)c3)cc(Cl)c2OCc2cccc(C(=O)OC)c2)c1 |  | > 200 | > 200 µM
18 | Cc1ccc(/C=C2\CCCC(CN(C)C)C2=O)cc1 (stereo not given) |  | > 200 | 0.617 µM
19 | CC(=O)NC(CC(C)C)C(=O)NC(CC(=O)O)C(=O)NC(CCCCN)C(=O)NC(C)C(=O)NC(CO)C(=O)NC(Cc1ccc(O)cc1)C(=O)NC(CO)C(=O)NC(C(=O)NC(CC(N)=O)C(=O)NC(Cc1cnc[nH]1)C(=O)NC(CC(C)C)C(N)=O)C(C)O (stereo not given) (Ac-LDKASYSTNHL-NH2; configuration not given here) |  | > 47.9 | > 47.9 µM
20 | Cc1ccc(S(=O)(=O)N/N=C(/c2ccccc2)c2ccsc2C)cc1 |  | > 200 | 29.5 µM
21 | CC(C)C(=Nc1ccc(Cl)c(Cl)c1)N(C)C |  | > 200 | > 100 µM
22 | CN(C)CCC(/C=C/c1ccccc1)=N\Nc1c(F)c(F)c(F)c(F)c1F | inactive |  | 
23 | COc1cc(NCCN2CCN(CCNc3cc(OC)cc4cccnc34)CC2)c2ncccc2c1 |  | > 50.1 | 45.7 µM
24 | COc1ccc(N(C(=O)Nc2ccc(Cl)c(Cl)c2)c2ccccc2)cc1 |  | > 200 | 126 µM
25 | CC(=O)Nc1cc(Cl)cc(Cl)c1O |  | > 200 | 53.7 µM
26 | CC(=O)NC(Cc1ccccc1)NC(=O)O (stereo not given) |  | > 200 | > 200 µM
27 | CCOC(=O)c1nc(SC)n(C)c1C(=O)OCC |  | > 200 | > 200 µM

Row | Structure (SMILES) | outcome | EC50 [µM] | IC50
28 | COc1ccc(NC(=O)C(C)Oc2ccc(OCC3CCCCC3)cc2)cc1 (stereo not given) |  | > 26.3 | > 26.3 µM
29 | Cc1nnc2c3nccnc3c(N)nn12 |  | > 200 | > 200 µM
30 | Cn1nc(-c2ccccc2)c(C(=O)/C=C/c2ccc(Cl)cc2)c(N2CCCC2)c1=O |  | > 15.1 | 10.7 µM
31 | C/C(NNC(=O)c1ccccc1O)=C1\C=Nc2ccccc2S1 |  | > 15.8 | 0.0794 µM
32 | Cc1ccc(C(=O)N(C2CCCCC2)C2CCCCC2)cc1N=NN(C)C |  | > 19.5 | > 19.5 µM
33 | N#CC1=C2Oc3ccccc3N2C(c2ccc(Cl)cc2)C(C#N)=C1N (stereo not given) |  | > 200 | 36.3 µM
34 | CC1(C)CCC(C)(C)c2cc(NC(=O)c3ccc(C(=O)O)cc3)ccc21 |  | > 200 | 95.5 µM
35 | Cc1c(-c2ccc(N)cc2)c(=O)oc2cc(O)ccc12 |  | > 200 | > 200 µM
36 | N=C(N)SC(c1ccccc1)C(O)c1ccccc1 (stereo not given) |  | > 200 | 91.2 µM
37 | CCCCc1c2c([n+]([O-])c3c1CCCC3)CCCC2 |  | > 138 | 22.4 µM
38 | COC1/C=C/OC2(C)Oc3c(C)c(O)c4c(O)c(c(/C=N/N(C)c5nc6c(N)ncnc6n5C5OC(CO)C(O)C5O)c(O)c4c3C2=O)NC(=O)C(C)=C/C=C/C(C)C(O)C(C)C(O)C(C)C(OC(C)=O)C1C (stereo not given) |  | > 200 | 112 µM
39 | COC(=O)c1ccc2c(c1)CC1(C2)Cc2ccc3c(c2C1)CCC3 (stereo not given) |  | > 200 | > 200 µM
40 | CC1C2CC(CC(=O)N2)C1(C)C (stereo not given) |  | > 1480 | 759 µM
41 | CC(C)CC(NC(=O)C(Cc1ccc(O)cc1)NC(=O)C(C)N)C(=O)NCC(=O)NC(CCCCN)C(=O)NC(CCCCN)C(=O)NC(C(=O)NC(C)C(=O)NC(C(=O)NC(CC(=O)O)C(=O)O)C(C)O)C(C)C (stereo not given) (H-AYLGKKVATD-OH; configuration not given here) | inactive |  | 
42 | CCN(CC)CCCNC(=O)Cc1ccccc1Nc1c(Cl)cccc1Cl |  | > 200 | 16.6 µM
43 | NCCN=C(Nc1ccccc1)Nc1ccccc1 |  | > 200 | 29.5 µM
44 | O=C1NC2(CCN(CCc3ccccc3)CC2)Oc2ccccc21 |  | > 200 | 191 µM
45 | O=S(=O)(NCCSSCCNS(=O)(=O)c1ccc(F)cc1)c1ccc(F)cc1 |  | > 200 | 8.91 µM
46 | CCC1(N)C(=O)OCc2c1cc1n(c2=O)Cc2cc3ccccc3nc2-1 (stereo not given) |  | > 200 | 0.813 µM
47 | CC(=O)OC1COC(n2c(=S)n(-c3ccccc3)c(=O)c3cc(Br)ccc32)C(OC(C)=O)C1OC(C)=O (stereo not given) |  | > 17 | > 17 µM
48 | COC(=O)C1Cc2c(n(C)c3ccccc23)C(c2ccccc2)N1 (stereo not given) | inactive |  | 
49 | C=C(C)[C@@H]1CC[C@]2(C(=O)O)CC[C@]3(C)[C@H](CCC4[C@@]5(C)CC[C@H](C(=O)/C=C/c6ccc(O)c(O)c6)C(C)(C)[C@@H]5CC[C@]43C)[C@@H]12 (stereo not given in full) |  | > 200 | 2.29 µM
50 | O=c1[nH]c(N2CCOCC2)nc2cc3ccccc3cc12 |  | > 155 | > 155 µM
51 | O=C1C(=Cc2ccc(Cl)c(Cl)c2)C([O-])=C([P+](c2ccccc2)(c2ccccc2)c2ccccc2)C([O-])=C1[P+](c1ccccc1)(c1ccccc1)c1ccccc1 |  | > 100 | 1.23 µM
52 | C=C(C(=O)OC)c1cc2ccccc2n1S(=O)(=O)c1ccccc1 |  | > 20 | 3.02 µM
53 | [N-]=[N+]=CC(=O)OC(CCl)CCl |  | > 200 | > 200 µM
54 | COCC1OC2(CCC[C@@H]2O)O[C@H]1COC (stereo not given in full) | inactive |  | 

Row | Structure (SMILES) | outcome | EC50 [µM] | IC50
55 | CCN(CC)CC(=O)Nc1ccc(Cl)cc1C(O)c1ccccc1 (stereo not given) |  | > 200 | 120 µM
56 | CC(=O)N1CC(=O)N2C(=O)/C(=C/c3ccc(Cl)cc3)N=C12 |  | > 63.1 | 6.92 µM
57 | COc1cc(C2c3cc4c(cc3OC(NNC(N)=O)C2C)OCO4)cc(OC)c1O (stereo not given) |  | > 200 | 0.525 µM
58 | O=C1CCCC/C1=C\c1ccc(Br)cc1 |  | > 200 | 10.7 µM
59 | COc1cc(C2SC(N)=Nc3c2c(C)nn3C(=O)Cc2ccccc2)cc(OC)c1OC (stereo not given) |  | 49 | > 200 µM
60 | O=C(Nc1nc2ccccc2n1Cc1ccc(Cl)cc1)NC12CC3CC(CC(C3)C1)C2 |  | > 200 | > 200 µM
61 | COc1ccc2nc3ccccc3c(NCCCCCN(C)CCCl)c2c1 | inactive |  | 
62 | Cc1cccc(CC(C)(C)C)c1NC(=O)C(=O)C(C(=O)c1ccc2ccccc2c1)C1OC(=O)c2ccccc21 (stereo not given) |  | > 126 | 56.2 µM
63 | c1ccc(-c2cn3c(nc4ccccc43)c(-c3ccccc3)n2)cc1 |  | > 200 | 132 µM
64 | O=C1CC23CCC12CCCC3=O (stereo not given) |  | > 550 | > 550 µM
65 | O=S(=O)(c1ccccc1)C1(Sc2ccccc2)CC=CC1 |  | > 81.3 | 51.3 µM
66 | C/C(CC(O)(C(F)(F)F)C(F)(F)F)=N\NC(N)=S |  | > 200 | > 200 µM
67 | COc1cccc(N(CN2CC=CC2=O)C(C)=O)c1 | inactive |  | 
68 | CC(C)c1cccc(C(C)C)c1NC(=O)C(=O)CC(=O)CC(c1ccccc1)c1c(O)c2ccccc2oc1=O (stereo not given) |  | > 468 | 229 µM
69 | O=C(/C=C/NC(=O)OCc1ccccc1)OCc1ccccc1 |  | > 200 | > 200 µM
70 | C=CCN(CC=C)c1nc(Cl)nc(Cl)n1 |  | > 200 | > 200 µM
71 | Cc1ccc(Sc2cc([N+](=O)[O-])cc(Sc3ccc(C)cc3)c2Sc2ccc(C)cc2)cc1 |  | > 3.72 | > 3.72 µM
72 | CC1C=C2c3ccccc3CC2C2C(=O)OC(=O)C12 (stereo not given) |  | > 200 | > 200 µM
73 | Cc1cc(=O)oc2c(C)c(O)ccc12 |  | > 138 | 97.7 µM
74 | COC(=O)CC1C(COC(C)=O)OC(n2ccc(=O)[nH]c2=O)C1OC(C)=O (stereo not given) |  | 0.537 | > 200 µM
75 | NCCCCC(NC(=O)C(N)Cc1ccc(O)cc1)C(=O)NC(Cc1ccc(O)cc1)C(=O)NC(CCCCN)C(=O)ON1C(=O)CCC1=O (stereo not given) (H-YKYK-OSu; configuration not given here) |  | > 200 | > 200 µM
76 | COc1cc(C2C(Cl)C(=O)N2NC(=O)c2ccc(NC(C)=O)cc2)cc(OC)c1OC (stereo not given) |  | > 200 | > 200 µM
77 | Cc1cc2c(C)nn(Cc3ccc(Cl)cc3)c2c(C#N)c1C |  | > 43.7 | > 43.7 µM
78 | COc1ccc2c(c1)OCC(O)(c1ccccc1)C2O (stereo not given) |  | > 200 | > 200 µM
79 | O=P(O)(O)OP(=O)(O)O |  | 182 | > 200 µM
